Like-named read-outs stand apart in the source and are kept apart here.
Key:
pancreatic lipase = target: T1, pancreatic lipase (Homo sapiens, UniProt P16233); experiment: in vitro testing of lipase inhibitor effectiveness in presence of activated charcoal; assay type: biochemical; conditions: 60 mg of orlistat with simethicone and 400 mg of porous activated charcoal (not enteric-coated)
T1 sequence (P16233 17-465): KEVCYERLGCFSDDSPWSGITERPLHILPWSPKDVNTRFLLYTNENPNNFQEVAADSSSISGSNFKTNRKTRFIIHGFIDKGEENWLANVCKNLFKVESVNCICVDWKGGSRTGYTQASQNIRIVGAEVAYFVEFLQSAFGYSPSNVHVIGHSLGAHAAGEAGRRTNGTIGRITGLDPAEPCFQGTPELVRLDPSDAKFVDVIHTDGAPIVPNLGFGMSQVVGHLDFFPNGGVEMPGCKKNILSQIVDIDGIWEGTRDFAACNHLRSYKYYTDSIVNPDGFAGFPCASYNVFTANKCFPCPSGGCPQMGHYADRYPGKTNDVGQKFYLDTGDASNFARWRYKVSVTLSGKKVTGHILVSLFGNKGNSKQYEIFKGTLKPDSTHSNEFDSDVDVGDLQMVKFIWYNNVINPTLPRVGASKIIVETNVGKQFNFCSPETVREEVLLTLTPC
Description: While the embodiment described in the preceding paragraph has been proven effective in preventing Underwear Issues associated with lipase inhibitors, in vitro testing has shown that the effectiveness of the lipase inhibitor is decreased due to the fact that some of the lipase inhibitor is absorbed by the activated charcoal and is therefore not available for binding to pancreatic lipase. […] Rather, the pharmaceutical composition may be configured such that the lipase inhibitor and surfactant are released in the stomach, and the activated charcoal is not released until the small intestine. By doing so, the lipase inhibitor becomes irreversibly bound to the pancreatic lipase enzyme (about 25%) in the very first 10 centimeters of the small intestines (the duodenum), prior to release of the activated charcoal, thus ensuring that the activated charcoal will not interfere with the ability of the lipase inhibitor to inactivate pancreatic lipase. For this reason, the activated charcoal in some embodiments of the compositions and methods herein is enteric-coated in order to maintain the full efficacy of the lipase inhibitor. […] Therefore, by using an enteric coated porous activated charcoal, the small undigested fat, emulsified in the chyme by actions of the emulsifying agent, can be chelated by the released porous activated charcoal in the distal small bowel.

[1] = clinical trials on over 2800 patients for one or two years; cited from earlier work
[2] = cited from earlier work
[3] = cited from earlier work; remark: listed apart in the source
[4] = cited from earlier work; remark: listed apart in the source

Compound: CCCCCCCCCCC[C@@H](C[C@@H]1OC(=O)[C@H]1CCCCCC)OC(=O)[C@H](CC(C)C)NC=O [orlistat, tetrahydrolipstatin]
- decrease in the effectiveness of the orlistat (pancreatic lipase): 30%
- Abdominal pain/discomfort (upper gastrointestinal adverse event) [1]: 25.5%
- Fatty/Oily stool (lower gastrointestinal adverse event) [1]: 26.0%
- Fecal incontinence (lower gastrointestinal adverse event) [1]: 7.7%
- Fecal urgency (lower gastrointestinal adverse event) [1]: 22.1%
- Flatus - with discharge (lower gastrointestinal adverse event) [1]: 23.9%
- Increased defecation (lower gastrointestinal adverse event) [1]: 10.8%
- Nausea (upper gastrointestinal adverse event) [1]: 8.1%
- Oily Evacuation (lower gastrointestinal adverse event) [1]: 11.9%
- Oily Spotting (lower gastrointestinal adverse event) [1]: 26.6%
- study participants with adverse events ([2]; 60 mg of orlistat): 89.1%
- study participants with adverse events ([2]; 120 mg of orlistat): 91.4%
- ingested fat whose digestion and absorption is prevented ([3]; 60 mg dose of orlistat (OTC)): 25%
- ingested fat whose digestion and absorption is prevented ([3]; 120 mg dose of orlistat (prescription)): 30%
- ingested fat whose digestion and absorption is prevented ([3]; dose not stated): 25-35%
- individuals reporting orlistat adverse events ([4]; normal (25 grams of fat/meal) US diet): over 90%
- individuals reporting orlistat adverse events ([4]; rigid low fat diet): over 50%
